US20220168301A1, “METHODS FOR TREATING SYMPTOMATIC ORTHOSTATIC HYPOTENSION” (Cerecor Inc, priority 2019, published 2022)
Like-named read-outs stand apart in the source and are kept apart here.

Key:
[1] = test system: patients with moderate Parkinson's disease; conditions: single oral dose 7 mg; cited from earlier work
[2] = test system: patients with symptomatic nOH associated with Parkinson's disease; experiment: Safety and tolerability of single doses in patients with nOH associated with Parkinson's disease; format: in vivo, human
Protocol: This study was designed as a randomized, double-blind, placebo-controlled trial in order to distinguish effects of active treatment in an efficient and unbiased manner. As CERC-301 had not previously been tested in subjects with symptomatic OH, a single escalating dose study design was used to ensure safety of the study participants.
Subjects were dosed on five separate occasions, approximately 7-10 days apart, with one of four single escalating doses of CERC-301 or placebo and underwent an orthostatic challenge test to assess the safety, tolerability, effect on blood pressure, and PK. Subjects also completed a symptomatic assessment following the orthostatic challenge. Subjects were enrolled and randomized based on the dosing schedule in Table 4:
AEs were monitored and the following information recorded: • Verbatim complaint • Whether the event was treatment-emergent (TEAE) • Whether event was serious (SAE) • Date of onset • Severity of event • Relationship of event to study drug • Action taken regarding study drug due to the event • Clinical outcome of event (resolved or ongoing) • If resolved, provide date of resolution
The following vital signs were measured during the study: • Blood pressure (systolic and diastolic [mm Hg]) • Heart rate (beats per minute [bpm]) • Oral body temperature (°C)
Two analysis sets were used. […] The SAF consists of all randomized subjects who receive at least one dose of study medication. […] The PKAS consists of all subjects from the SAF for whom sufficient plasma concentration data are available to facilitate the calculation of at least one PK parameter.
All safety and tolerability data are summarized using descriptive statistics. They are listed and summarized in tabular and/or graphical form. […] Descriptive statistics for laboratory values and their change or shift from baseline for each dose group are provided for each scheduled time of collection. Descriptive statistics for vital signs and their change from baseline for each dose group are provided for each scheduled time of collection. The placebo subjects are combined into a single placebo group for summary presentations.

[3] = Plasma pharmacokinetics of CERC-301, single and 7-day repeated dose, healthy subjects; format: in vivo, human; conditions: for half-life: read-out: Average t1/2; for Tmax: read-out: Median tmax
Protocol: The study was a randomized, double-blind, placebo-controlled parallel-group, three-part, repeated dose in-patient study investigating the safety, tolerability, PK, and PD of CERC-301 in healthy subjects.
Subjects received 8, 12, 16 or 20 mg CERC-301 or matching placebo once-daily for 7 days.
PK endpoints included the following determined from plasma CERC-301 concentration data: • Day 1 parameters include Cmax, Tmax, AUC0-24, AUC0-inf, AUC%extrap, CL/F, Vz/F, and t1/2 • Day 7 parameters include Cmax, Tmax, AUC0-24, AUC0-inf, AUC%extrap, CL/F, Vss/F, t1/2, and Cavg • Trough concentrations will be reported for Days 2-8 • Accumulation after 7-days of dosing will be investigated by calculating: • Observed Accumulation Ratio: AUCo-24 (Day 7)/AUC0-24 (Day 1) • Steady State Accumulation Ratio: AUC0-24 (Day 7)/AUC0-int (Day 1) • Cmax ratio: Cmax (Day 7)/Cmax (Day 1)
Pharmacokinetic parameters were determined for CERC-301 using noncompartmental methods based on plasma CERC-301 concentration data following the first and last dose of CERC-301. […] Mean plasma CERC-301 concentrations on Day 7 were approximately 20% to 40% higher from 2 to 24 hours postdose in the intermediate age and elderly subgroups, respectively, compared to the young age subgroup, and were approximately 20% higher from 2 to 24 hours postdose in female subjects compared to male subjects.

[4] = whole study, active and placebo not separated

Cc1ccc(COC(=O)N2CC[C@H](CNc3ncccn3)[C@H](F)C2)cc1 [CERC-301]
Plasma concentration relative to target [1]: > 400 nM
Systolic and diastolic blood pressure relative to placebo [1]: increases in systolic and diastolic blood pressure relative to placebo
Tolerability [1]: generally well tolerated
Safety and tolerability ([2]; single doses of 8, 12, 16 and 20 mg): safe and well tolerated
Signals of increased heart rate or supine hypertension during the recumbent phase of the OST, active versus placebo ([2]; single doses of 8 to 20 mg): No signals of increased heart rate or, supine hypertension
SAEs ([2]; whole study): No SAEs were reported
AE reported: blurred vision [2, 4]: 14.3%
AE reported: dizziness [2, 4]: 7.1%
AE reported: fall [2, 4]: 14.3%
AE reported: hypoaesthesia [2, 4]: 7.1%
AE reported: hypotension [2, 4]: 7.1%
AE reported: memory impairment [2, 4]: 7.1%
AE reported: nasal congestion [2, 4]: 7.1%
AE reported: on/off phenomenon [2, 4]: 7.1%
AE reported: somnolence [2, 4]: 7.1%
AE reported: squamous cell carcinoma [2, 4]: 7.1%
Plasma CERC-301 concentrations increase with dose ([3]; 8 to 20 mg, steady-state daily dosing): approximately dose proportional
Apparent oral clearance, lower in female subjects compared to male subjects ([3]; Day 7): approximately 15%
Apparent oral clearance, lower in intermediate age group compared to young age group ([3]; Day 7): approximately 18%
Average Cmax, higher in intermediate age and elderly subgroups compared to young age group ([3]; Day 7): approximately 30%
Average t1/2, higher in elderly age group compared to young age group ([3]; Day 7): ~38%
Average t1/2, higher in female subjects compared to male subjects ([3]; Day 7): approximately 16%
Average t1/2, higher in intermediate age group compared to young age group ([3]; Day 7): approximately 27%
Mean plasma CERC-301 concentrations, higher in elderly subgroup compared to young age subgroup ([3]; Day 7, 2 to 24 hours postdose): ~40%
Mean plasma CERC-301 concentrations, higher in female subjects compared to male subjects ([3]; Day 7, 2 to 24 hours postdose): approximately 20%
Mean plasma CERC-301 concentrations, higher in intermediate age subgroup compared to young age subgroup ([3]; Day 7, 2 to 24 hours postdose): approximately 20%
Cmax and AUC increase with dose ([3]; Days 1 and 7, 8 to 20 mg): approximately dose-proportional
half-life ([3]; both sexes, human, plasma, oral, male and female subjects, Day 7): 21 to 24 h
Tmax ([3]; both sexes, human, plasma, oral, male and female subjects): 1.75 to 2 h
Average Day 7 to Day 1 Cmax ratio ([3]; elderly age group): 1.53
Mean observed accumulation index ([3]; elderly age group): 2.12
Mean steady state accumulation index ([3]; elderly age group): 1.30
Average apparent volume of distribution ([3]; elderly age subgroup, Day 7): 111 L
Average Day 7 to Day 1 Cmax ratio ([3]; females): 1.38
Mean observed accumulation index ([3]; females): 1.88
Mean steady state accumulation index ([3]; females): 1.10
Average apparent volume of distribution ([3]; females, Day 7): 105 L
Oral bioavailability ([3]; human, in vivo, po): orally bioavailable
Tmax ([3]; human, plasma, oral, Day 1, 8 to 20 mg): 2 to 3 h
Tmax ([3]; human, plasma, oral, Day 7, 8 to 20 mg): 1.5 to 3 h
Tmax ([3]; human, plasma, oral, young subjects, Days 1 and 7, 8 to 20 mg): 1.5 to 3 h
half-life ([3]; human, plasma, oral, young, intermediate age and elderly subgroups, Day 7): 20 to 28 h
Tmax ([3]; human, plasma, oral, young, intermediate age and elderly subgroups): 1.5 to 2.5 h
Vd ([3]; human, plasma, oral, young subjects, Day 7, 8 to 20 mg, read-out: Average apparent volume of distribution): 83 to 115 L
half-life ([3]; human, plasma, oral, young subjects, Day 7, 8 to 20 mg): 17 to 21 h
Average Day 7 to Day 1 Cmax ratio ([3]; intermediate age group): 1.41
Mean observed accumulation index ([3]; intermediate age group): 1.92
Mean steady state accumulation index ([3]; intermediate age group): 1.13
Average apparent volume of distribution ([3]; intermediate age subgroup, Day 7): 121 L
Average Day 7 to Day 1 Cmax ratio ([3]; males): 1.36
Mean observed accumulation index ([3]; males): 1.72
Mean steady state accumulation index ([3]; males): 1.15
Average apparent volume of distribution ([3]; males, Day 7): 108 L
Steady-state predose plasma CERC-301 concentrations achieved ([3]; repeated daily doses): by study day 5 or 6
Average Day 7 to Day 1 Cmax ratio ([3]; young age group): 1.15
Mean observed accumulation index ([3]; young age group): 1.65
Mean steady state accumulation index ([3]; young age group): 1.01
Average apparent volume of distribution ([3]; young age subgroup, Day 7): 115 L
Steady-state accumulation index (AUC0-24 Day 7/AUC0-inf Day 1) ([3]; young subjects, on average): 1.1
